Experimental data from US9943500B2, “Methods of treating topical microbial infections” (LUODA PHARMA PTY LIMITED, priority 2013, dated 2018).

Tests used:
red blood cells = test: Eukaryotic cell toxicity testing, erythrocyte haemolysis; format: cell-based; settings: 2% blood cell solution, one hour at 37° C.
Protocol: Erythrocyte haemolysis was used in order to test the toxicity of all five compounds to eukaryotic cells. Blood samples were washed using 9.1 g/L saline solution and centrifuged at 2500 rpm for 10 minutes. This process was repeated until cellular debris and partially lysed cells were removed from solution. 2 mL of the remaining blood cells were suspended in 98 mL of 9.1 g/L saline solution to produce a 2% blood cell solution, which was dispensed in 90 μL volumes into the wells of a 96 well plate. The compound solutions as well as chloramphenicol were prepared from stock solution to a concentration of 256 μg/mL (as described above). Chloramphenicol was used as a negative control for erythrocyte lysis while a ready to use solution of amphotericin B was used as a positive control. 90 μL of the compounds and controls were added to the final well in different rows. These compounds were serially diluted across the row in order to test the different concentrations of antimicrobials. Wells containing only 2% blood solution were also used to assess variation between readings from different columns on the 96 well plates. These tests were incubated at 37° C. for one hour and then assessed for lysis both visually and using a microplate reader to measure optical density at 600 nm wavelengths. Each test was performed in duplicate and then repeated in quadruplicate in order to ensure accuracy.

Staphylococcus aureus = test: Skin wound infection model in mice, topical ointment (Example 5); format: in vivo; settings: LP1369 ointment 20 mg/g, 11 treatments
Source text: Preliminary studies prior to the conduct to the current study established a new method of skin infection arising from a detailed study of the models mentioned above. Briefly, study mice are anaesthetised, a patch of dorsal skin is clipped to reveal the skin and a circular area of skin is removed with a hand held punch, leaving a wound on the dorsum with a central cavity. The wound is infected with a known number of the challenge organism. Approximately four to six hours after infection, the wound is either treated topically with a vehicle formulation or an active formulation. The infected skin wound is retreated every 12 hours for a total of 11 treatments. Mice are humanely euthanased, the area of the original infected wound is dissected and removed and its bacterial content quantified by standard microbiologic tests. In this way, the change in bacterial concentration due to treatment with the active formulation can be readily determined by examining the reduction in bacterial burden compared with the vehicle control.
Fresh cultures of bacteria were grown on Sheep Blood Agar at 37° C. for 16-18 hours. […] The density of the suspension was checked by measuring absorbance at 600 nm, using a spectrophotometer with saline as a blank, to confirm the target density at a reading of approximately 0.100, consistent with a bacterial density of 2.5×10^8 CFU/ml. […]

CC[C@@H](C(=O)[C@@H](C)[C@@H](O)[C@H](C)CCc1ccc(C)c(O)c1C(=O)O)[C@H]1O[C@](CC)([C@H]2CC[C@](O)(CC)[C@H](C)O2)C[C@@H]1C [LP 1369, Lasalocid]
concentration at which lysis was most visually evident (red blood cells): 64000 ng/mL | concentration range in which some lysis of cells was observed (red blood cells): 32000 to 128000 ng/mL | decrease in bacterial load compared to vehicle control mice (Staphylococcus aureus): statistically significant | reduction of the bacterial population (Staphylococcus aureus; every 12 hours, versus vehicle): greater than 99%
